Laboratory results taken from ChEMBL document CHEMBL1201862, “PubChem BioAssay data set” (2004).
The source made the active and inactive calls. No stated cut-off is given here; in the data, actives have a measured IC50 and inactives only a lower limit.

How the values were obtained:
Format in all cases: functional
[1] = target: T1, Caspase-3 (Homo sapiens, UniProt P42574);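 further: Dose-response selectivity test against caspase-3 for candidate inhibitors of sentrin-specific proteases (SENPs)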
T1 sequence (P42574 whole entry): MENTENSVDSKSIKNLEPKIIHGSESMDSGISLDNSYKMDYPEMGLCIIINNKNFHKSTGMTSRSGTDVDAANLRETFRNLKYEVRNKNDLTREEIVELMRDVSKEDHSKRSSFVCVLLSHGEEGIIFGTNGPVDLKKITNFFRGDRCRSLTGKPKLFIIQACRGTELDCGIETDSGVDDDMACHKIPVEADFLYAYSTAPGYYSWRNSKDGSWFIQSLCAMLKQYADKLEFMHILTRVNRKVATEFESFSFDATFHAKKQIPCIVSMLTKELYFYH

[2] = target: T2, Sentrin-specific protease 7 (Homo sapiens, UniProt Q9BQF6);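 further: Luminescence-based dose-response confirmation of ultra-high-throughput screening hits, measuring inhibition of SENP7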
T2 sequence (Q9BQF6 whole entry): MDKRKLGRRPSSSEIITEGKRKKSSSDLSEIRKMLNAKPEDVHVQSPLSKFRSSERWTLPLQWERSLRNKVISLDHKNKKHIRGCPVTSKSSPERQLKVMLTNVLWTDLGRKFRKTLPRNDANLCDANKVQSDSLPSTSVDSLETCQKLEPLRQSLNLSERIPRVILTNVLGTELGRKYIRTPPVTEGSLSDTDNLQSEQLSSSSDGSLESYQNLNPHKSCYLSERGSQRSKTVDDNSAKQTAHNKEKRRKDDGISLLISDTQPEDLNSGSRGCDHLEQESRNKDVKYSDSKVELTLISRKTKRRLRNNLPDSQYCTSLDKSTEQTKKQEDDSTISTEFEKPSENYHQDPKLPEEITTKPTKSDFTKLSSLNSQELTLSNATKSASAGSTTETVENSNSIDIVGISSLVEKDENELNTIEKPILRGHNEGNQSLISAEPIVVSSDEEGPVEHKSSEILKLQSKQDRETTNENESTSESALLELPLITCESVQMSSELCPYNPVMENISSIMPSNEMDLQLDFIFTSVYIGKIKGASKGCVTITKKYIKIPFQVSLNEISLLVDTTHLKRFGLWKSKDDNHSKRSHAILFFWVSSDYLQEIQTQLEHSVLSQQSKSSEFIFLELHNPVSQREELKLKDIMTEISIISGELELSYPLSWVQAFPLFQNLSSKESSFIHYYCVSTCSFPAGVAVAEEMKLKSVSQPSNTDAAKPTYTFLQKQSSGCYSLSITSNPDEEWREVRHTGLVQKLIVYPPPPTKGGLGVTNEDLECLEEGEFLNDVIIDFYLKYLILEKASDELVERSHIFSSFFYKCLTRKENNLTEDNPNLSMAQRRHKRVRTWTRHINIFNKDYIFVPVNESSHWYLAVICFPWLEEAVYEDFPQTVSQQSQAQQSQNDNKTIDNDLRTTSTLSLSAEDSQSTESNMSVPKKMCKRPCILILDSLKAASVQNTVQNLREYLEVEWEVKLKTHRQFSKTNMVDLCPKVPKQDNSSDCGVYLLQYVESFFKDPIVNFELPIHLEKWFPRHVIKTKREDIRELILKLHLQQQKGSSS

[3] = target: T3, Sentrin-specific protease 6 (Homo sapiens, UniProt Q9GZR1);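 further: Luminescence-based dose-response confirmatory assay of SENP6 inhibition, following up an ultra-high-throughput screen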
T3 sequence (Q9GZR1 whole entry): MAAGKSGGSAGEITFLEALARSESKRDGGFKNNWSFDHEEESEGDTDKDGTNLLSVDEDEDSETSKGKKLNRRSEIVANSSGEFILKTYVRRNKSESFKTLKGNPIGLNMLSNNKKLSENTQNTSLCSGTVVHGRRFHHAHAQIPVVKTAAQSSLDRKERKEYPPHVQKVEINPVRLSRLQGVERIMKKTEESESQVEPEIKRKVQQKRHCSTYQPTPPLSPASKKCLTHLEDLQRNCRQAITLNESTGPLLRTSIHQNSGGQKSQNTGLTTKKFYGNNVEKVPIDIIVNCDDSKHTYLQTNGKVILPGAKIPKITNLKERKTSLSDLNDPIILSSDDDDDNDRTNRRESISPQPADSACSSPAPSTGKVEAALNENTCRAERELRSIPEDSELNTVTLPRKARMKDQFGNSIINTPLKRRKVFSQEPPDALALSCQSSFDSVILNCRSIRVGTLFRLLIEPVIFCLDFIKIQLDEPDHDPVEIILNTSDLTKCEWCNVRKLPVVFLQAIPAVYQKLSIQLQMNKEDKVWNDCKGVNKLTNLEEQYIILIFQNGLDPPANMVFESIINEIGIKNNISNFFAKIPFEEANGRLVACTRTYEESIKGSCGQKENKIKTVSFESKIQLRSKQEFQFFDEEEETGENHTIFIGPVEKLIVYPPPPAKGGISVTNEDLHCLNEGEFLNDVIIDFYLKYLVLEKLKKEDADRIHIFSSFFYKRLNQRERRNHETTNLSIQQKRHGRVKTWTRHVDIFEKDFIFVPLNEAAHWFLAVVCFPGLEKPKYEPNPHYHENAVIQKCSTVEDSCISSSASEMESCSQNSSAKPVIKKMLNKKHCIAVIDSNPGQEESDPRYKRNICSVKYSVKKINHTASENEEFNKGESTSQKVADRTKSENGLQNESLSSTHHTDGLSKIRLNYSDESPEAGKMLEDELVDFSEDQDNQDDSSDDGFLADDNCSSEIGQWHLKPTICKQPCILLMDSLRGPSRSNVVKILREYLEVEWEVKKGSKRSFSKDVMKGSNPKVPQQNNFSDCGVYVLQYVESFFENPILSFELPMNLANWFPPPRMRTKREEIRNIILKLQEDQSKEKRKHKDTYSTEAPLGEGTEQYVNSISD

## C=CCNC1=C(Cl)C(=O)c2ccccc2C1=O
[1]
  IC50: 3.62 µM (active)
[2]
  IC50: 23.9 µM (active)
[3]
  IC50: 9.07 µM (active)

## CN(C)c1ccc(-c2nnc(-c3cccs3)o2)cc1
[1]
  IC50: 22.3 µM (active)
[2]
  IC50: 12.9 µM (active)
[3]
  IC50: > 100 µM (inactive)
